Experimental data reported in US9232796B2, “Herbicidal compositions comprising 4-amino-3-chloro-5-fluoro-6-(4-chloro-2-fluoro-3-methoxyphenyl) pyridine-2-carboxylic acid or a derivative thereof and acetyl-CoA carboxylase (ACCase) inhibitors” (DOW AGROSCIENCES LLC, priority 2012, dated 2016).

How the values were obtained:
CYPES = experiment: Example I postemergence foliar-applied, greenhouse, direct seeded rice weeds; type: in vivo, Cyperus esculentus L.
Source text: Seeds or nutlets of the desired test plant species were planted in a soil matrix prepared by mixing a loam or sandy loam soil (e.g., 28.6 percent silt, 18.8 percent clay, and 52.6 percent sand, with a pH of about 5.8 and an organic matter content of about 1.8 percent) and calcareous grit in an 80 to 20 ratio. The soil matrix was contained in plastic pots with a volume of 1 quart and a surface area of 83.6 square centimeters (cm^2). When required to ensure good germination and healthy plants, a fungicide treatment and/or other chemical or physical treatment was applied. The plants were grown for 8-22 days in a greenhouse with an approximate 14 hr. photoperiod which was maintained at about 29° C. during the day and 26° C. during the night. Nutrients (Peters Excel® 15-5-15 5-Ca 2-Mg and iron chelate) were applied in the irrigation solution as needed and water was added on a regular basis. Supplemental lighting was provided with overhead metal halide 1000-Watt lamps as necessary. The plants were employed for testing when they reached the first through fourth true leaf stage.
Treatments consisted of the acid or esters of 4-amino-3-chloro-5-fluoro-6-(4-chloro-2-fluoro-3-methoxy-phenyl)pyridine-2-carboxylic acid (Compound A), each formulated as an SC (suspension concentrate), and various herbicidal components alone and in combination.
Other herbicidal components were applied on an acid equivalent (ae) or active ingredient (ai) basis and included acetyl coA carboxylase (ACCase)-inhibiting herbicides (cyclohexanedione and aryloxyphenoxypropionate chemical classes) cyhalofop-butyl formulated as Clincher® SF (285 gr ai/L EC), diclofop-methyl formulated as Hoelon® 3EC, fenoxaprop-p-ethyl+isoxadifen-ethyl formulated as RiceStar® HT (0.58 lb./gal EC), fenoxaprop-p-ethyl+mefenpyr diethyl formulated as Puma® IEC, metamifop formulated as Metamifop EC, haloxyfop-methyl formulated as Gallant Super®, fluazifop-p-butyl formulated as Fusilade® DX, quizalofop-p-ethyl formulated as Assure® II, profoxydim formulated as Aura® 20EC, clethodim applied as Intensity®, sethoxydim formulated as Poast®, and tralkoxydim formulated as Achieve®.
Treatment requirements were calculated based upon the rates being tested, the concentration of active ingredient or acid equivalent in the formulation, and a 12 mL application volume at a rate of 187 L/ha.
For treatments comprised of formulated compounds, measured amounts of compounds were placed individually in 25 mL glass vials and diluted in a volume of 1.25% (v/v) Agri-Dex® crop oil concentrated to obtain 12× stock solutions. […] Application solutions were prepared by adding an appropriate amount of each stock solution (e.g., 1 mL) and diluted to the appropriate final concentrations with the addition of 10 mL of an aqueous mixture of 1.25% (v/v) crop oil concentrate so that the final spray solutions contained 1.25+/−0.05% (v/v) crop oil concentrate.
All stock solutions and applications solutions were visually inspected for compound compatibility prior to application. Spray solutions were applied to the plant material with an overhead Mandel track sprayer equipped with a 8002E nozzles calibrated to deliver 187 L/ha over an application area of 0.503 m^2 at a spray height of 18 to 20 inches (46 to 50 cm) above average plant canopy height. Control plants were sprayed in the same manner with the solvent blank.
The treated plants and control plants were placed in a greenhouse as described above and watered by sub-irrigation to prevent wash-off of the test compounds. After approximately 3 weeks, the condition of the test plants as compared with that of the untreated plants was determined visually and scored on a scale of 0 to 100 percent where 0 corresponds to no injury or growth inhibition and 100 corresponds to complete kill. […]

CYPIR = experiment: as above; type: in vivo, Cyperus iria L.
Summary of the method: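 Read-out is visual percent injury or growth inhibition (0 = none, 100 = complete kill) versus untreated plants about 3 weeks after treatment, with Colby's equation giving expected activity of two-way mixtures. Applications used a track sprayer at 187 L/ha in 1.25% (v/v) crop oil concentrate. Plants were at the first to fourth true leaf stage.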

SCPMA = experiment: Example VI in-water applied ternary mixtures, greenhouse, transplanted paddy rice weeds; type: in vivo, Schoenoplectus maritimus (L.) Lye
Experimental: Applications were made by injecting with a pipetter appropriate amounts of the application solutions, into the aqueous layer of the paddy. Control plants were treated in the same manner with the solvent blank. Applications were made so that all treated plant material received the same concentrations of acetone and crop oil concentrate.
The treated plants and control plants were placed in a greenhouse as described above and water was added as needed to maintain a paddy flood. After approximately 3 weeks the condition of the test plants as compared with that of the untreated plants was determined visually and scored on a scale of 0 to 100 percent where 0 corresponds to no injury or growth inhibition and 100 corresponds to complete kill.
Colby's equation was used to determine the herbicidal effects expected from the mixtures (Colby, S. R. 1967. Calculation of the synergistic and antagonistic response of herbicide combinations. Weeds 15:20-22.).
The following equation was used to calculate the expected activity of mixtures containing three active ingredients, A. B, and C: Expected=A+B+C−((A×B+A×C+B×C)/100)+(A×B×C/10000)

ECHSS = experiment: Example V post-emergence field trials in direct-seeded rice; type: in vivo, multiple Echinochloa species; details: foliar, field trial Italy
Experimental: (§1) Multiple field trials were conducted under commercial grower field conditions in Tolima, Colombia; Thessaloniki, Greece; Bianze and Copiano, Italy; and Humphrey, Ark., USA. Trials sites were located in commercially grown fields of direct-seeded rice (Oryza sativa) using standard herbicide small plot research methodology. Plots varied from 2 to 3 meter (m)×5 to 8 m (width×length) with 4 replicates per treatment. The rice crop was grown using normal cultural practices for fertilization, seeding, watering, flooding and maintenance to ensure good growth of the crop and the weeds.
(§2) All treatments in the field trials were applied using a backpack compressed air/gas sprayer with flat fan nozzles (80° or 110°) calibrated to apply 187 to 300 L/ha spray volume at approximately 200-400 kPa nozzle pressure. Commercially available products of cyhalofop-butyl (Clincher 180EC, Clincher 200EC, and Clincher SF (285 gr ai/L EC)) were mixed in water at appropriate formulated product rates to achieve the desired rates based on a unit area of application (hectare) to achieve the desired rates as shown. Treatments were rate at 19 to 58 days after application (DAA) as compared to the untreated control plants. Visual weed control was scored on a scale of 0 to 100 percent where 0 corresponds to no injury and 100 corresponds to complete kill. […]

SCPMU = experiment: as above; type: in vivo, Schoenoplectus mucronatus; details: foliar, field trial Italy
Experimental: as §1, §2

Structure (SMILES): COc1c(Cl)ccc(-c2nc(C(=O)O)c(Cl)c(N)c2F)c1F [Compound A Acid, 4-amino-3-chloro-6-(4-chloro-2-fluoro-3-methoxyphenyl)-5-fluoropyridine-2-carboxylic acid]
- Visual Weed Control (%) - 20 DAA CYPES Obs (CYPES; 4.38 gae/ha): 30%
- Visual Weed Control (%) - 22 DAA CYPES Obs (CYPES; 4.38 gae/ha): 50%
- Visual Weed Control (%) - 20 DAA CYPES Obs (CYPES; 8.75 gae/ha): 70%
- Visual Weed Control (%) - 22 DAA CYPES Obs (CYPES; 8.75 gae/ha): 75%
- Visual Weed Control (%) - 22 DAA CYPIR Obs (CYPIR; 4.38 gae/ha): 15%

Structure (SMILES): COc1c(Cl)ccc(-c2nc(C(=O)OCc3ccccc3)c(Cl)c(N)c2F)c1F [Compound A Benzyl Ester, benzyl ester of 4-amino-3-chloro-5-fluoro-6-(4-chloro-2-fluoro-3-methoxy-phenyl)pyridine-2-carboxylic acid]
- Visual Weed Control (%) - 20 DAA CYPES Obs (CYPES; 4.38 gae/ha): 70%
- Visual Weed Control (%) - 20 DAA CYPES Obs (CYPES; 8 gae/ha): 0%
- Visual Weed Control (%) - 20 DAA CYPES Obs (CYPES; 8.75 gae/ha): 80%
- Visual Weed Control (%) - 20 DAA CYPES Obs (CYPES; 16 gae/ha): 75%
- Visual Weed Control (%) - 20 DAA CYPES Obs (CYPES; 17.5 gae/ha): 95%
- Visual Weed Control (%) - 24 DAA SCPMA Obs (SCPMA; 4 gae/ha): 0%
- Visual Weed Control (%) - 24 DAA SCPMA Obs (SCPMA; 8 gae/ha): 0%
- Visual Weed Control (%) - 24 DAA SCPMA Obs (SCPMA; 16 gae/ha): 0%
- Visual Weed Control (%) - 20 DAA CYPIR Obs (CYPIR; 4.38 gae/ha): 15%
- Visual Weed Control (%) - 22 DAA CYPIR Obs (CYPIR; 8 gae/ha): 20%
- Visual Weed Control (%) - 20 DAA CYPIR Obs (CYPIR; 8.75 gae/ha): 35%
- Visual Weed Control (%) - 22 DAA CYPIR Obs (CYPIR; 16 gae/ha): 85%
- Visual Weed Control (%) - 22 DAA CYPIR Obs (CYPIR; 32 gae/ha): 100%
- Visual Weed Control (%) - 55-58 DAA ECHSS Obs (ECHSS; 24 gae/ha): 40%
- Visual Weed Control (%) - 55-58 DAA SCPMU Obs (SCPMU; 24 gae/ha): 27%

Structure (SMILES): CCCCOC(=O)[C@@H](C)Oc1ccc(Oc2ccc(C#N)cc2F)cc1 [Cyhalofop-butyl, butyl(2R)-2-[4-(4-cyano-2-fluorophenoxy)phenoxy]propanoate, reference compound]
- Visual Weed Control (%) - 24 DAA SCPMA Obs (SCPMA; 180 gai/ha): 0%
- Visual Weed Control (%) - 55-58 DAA ECHSS Obs (ECHSS; 300 gai/ha): 37%
- Visual Weed Control (%) - 55-58 DAA SCPMU Obs (SCPMU; 300 gai/ha): 6%
